≈ marks a conversion by molar mass, not a printed value. Like-named read-outs stand apart in the source and are kept apart here.
System: S. aureus
Assay: Minimum inhibitory concentrations (MICs) for S. aureus of exemplary compounds (Table 2)
Format: cell-based
Conditions: Staphylococcus aureus, read-out: MICs
In short: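 MICs (μg/mL) against S. aureus come from microtiter-tray dilution susceptibility testing per NCCLS M7-A5, comparing growth with and without compound.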

[1] = minimum inhibitory concentrations for S. aureus

CC(=O)NC[C@H]1CN(c2cc(F)c(-c3ccc(Cn4cnnn4)cc3)c(F)c2)C(=O)O1 [Compound 1048, N-[3-(2,6-Difluoro-4′-tetrazol-1-ylmethyl-biphenyl-4-yl)-2-oxo-oxazolidin-5-(S)-ylmethyl]-acetamide]
MIC [1]: 1 µg/mL (≈ 2.33 µM)

CC(=O)NC[C@H]1CN(c2ccc(-c3ccc(Cn4ccnn4)cc3)c(F)c2)C(=O)O1 [Compound 1015, N-[3-(2-Fluoro-4′-[1,2,3]triazol-1-ylmethyl-biphenyl-4-yl)-2-oxo-oxazolidin-5-(S)-ylmethyl]-acetamide]
MIC [1]: 0.25 µg/mL (≈ 0.611 µM)

CC(=O)NC[C@H]1CN(c2ccc(-c3ccc(CNNC4=NCCN4)cc3)c(F)c2)C(=O)O1 [Compound 2049, N-(3-{4′-[N′-(4,5-Dihydro-1H-imidazol-2-yl)-hydrazinomethyl]-2-fluoro-biphenyl-4-yl}-2-oxo-oxazolidin-5-(S)-ylmethyl)-acetamide]
MIC [1]: 2 µg/mL (≈ 4.54 µM)

CC(=O)NC[C@H]1CN(c2ccc(-c3ccc(CNCc4ccc(-n5cccc5)cc4)cc3)c(F)c2)C(=O)O1 [Compound 4147, N-(3-{2-Fluoro-4′-[(4-pyrrol-1-yl-benzylamino)-methyl]-biphenyl-4-yl}-2-oxo-oxazolidin-5-(S)-ylmethyl)-acetamide]
MIC [1]: 4 µg/mL (≈ 7.8 µM)

CC(=O)NC[C@H]1CN(c2ccc(-c3ccc(CNC(=O)Cn4cc(CO)nn4)cc3)c(F)c2)C(=O)O1 [Compound 4240, N-{4′-[5-(S)-(Acetylamino-methyl)-2-oxo-oxazolidin-3-yl]-2′-fluoro-biphenyl-4-ylmethyl}-2-(4-hydroxymethyl-[1,2,3]triazol-1-yl)-acetamide]
MIC [1]: 16 µg/mL (≈ 32.2 µM)

CC(=O)NC[C@H]1CN(c2ccc(-c3ccc(CN[C@H]4CCCNC4=O)cc3)c(F)c2)C(=O)O1 [Compound 2059, N-(3-{2-Fluoro-4′-[(2-oxo-piperidin-3-(S)-ylamino)-methyl]-biphenyl-4-yl}-2-oxo-oxazolidin-5-(S)-ylmethyl)-acetamide]
MIC [1]: 2 µg/mL (≈ 4.4 µM)

CC(=O)NC[C@H]1CN(c2ccc(-c3ccc(CNCC4CO4)cc3)c(F)c2)C(=O)O1 (stereo partly drawn) [Compound 4210, N-(3-{2-Fluoro-4′-[(oxiranylmethyl-amino)-methyl]-biphenyl-4-yl}-2-oxo-oxazolidin-5-(S)-ylmethyl)-acetamide]
MIC [1]: 4 µg/mL (≈ 9.67 µM)

CC(=O)NC[C@H]1CN(c2ccc(-c3ccc(CNCc4ccncc4)cc3)c(F)c2)C(=O)O1 [Compound 4018, N-[3-(2-Fluoro-4′-{[(pyridin-4-ylmethyl)-amino]-methyl}-biphenyl-4-yl)-2-oxo-oxazolidin-5-(S)-ylmethyl]-acetamide]
MIC [1]: 1 µg/mL (≈ 2.23 µM)

CC(=O)NC[C@H]1CN(c2ccc(-c3ccc(Cn4cnnn4)nc3)c(F)c2)C(=O)O1 [Compound 1035, N-{3-[3-Fluoro-4-(6-tetrazol-1-ylmethyl-pyridin-3-yl)-phenyl]-2-oxo-oxazolidin-5-(S)-ylmethyl}-acetamide]
MIC [1]: 0.5 µg/mL (≈ 1.22 µM)

CC(=O)NC[C@H]1CN(c2ccc(-c3ccc(CNCc4cccc5ccccc45)cc3)c(F)c2)C(=O)O1 [Compound 4022, N-[3-(2-Fluoro-4′-{[(naphthalen-1-ylmethyl)-amino]-methyl}-biphenyl-4-yl)-2-oxo-oxazolidin-5-(S)-ylmethyl]-acetamide]
MIC [1]: 4 µg/mL (≈ 8.04 µM)

CC(=O)NC[C@H]1CN(c2ccc(-c3ccc(Cn4ncnn4)cc3)c(F)c2)C(=O)O1 [Compound 1056, N-[3-(2-Fluoro-4′-tetrazol-2-ylmethyl-biphenyl-4-yl)-2-oxo-oxazolidin-5-(S)-ylmethyl]-acetamide]
MIC [1]: 0.25 µg/mL (≈ 0.609 µM)

CC(=O)NC[C@H]1CN(c2ccc(-c3ccc(CNCc4cnco4)cc3)c(F)c2)C(=O)O1 [Compound 4208, N-[3-(2-Fluoro-4′-{[(oxazol-5-ylmethyl)-amino]-methyl}-biphenyl-4-yl)-2-oxo-oxazolidin-5-(S)-ylmethyl]-acetamide]
MIC [1]: 1 µg/mL (≈ 2.28 µM)

CC(=O)NC[C@H]1CN(c2ccc(-c3ccc(CNCc4ccc(-c5ccccn5)s4)cc3)c(F)c2)C(=O)O1 [Compound 4119, N-[3-(2-Fluoro-4′-{[(5-pyridin-2-yl-thiophen-2-ylmethyl)-amino]-methyl}-biphenyl-4-yl)-2-oxo-oxazolidin-5-(S)-ylmethyl]-acetamide]
MIC [1]: 1 µg/mL (≈ 1.88 µM)

CCC(O)Cc1cn(CC(=O)NCc2ccc(-c3ccc(N4C[C@H](CNC(C)=O)OC4=O)cc3F)cc2)nn1 (stereo partly drawn) [Compound 4241, N-{4′-[5-(S)-(Acetylamino-methyl)-2-oxo-oxazolidin-3-yl]-2′-fluoro-biphenyl-4-ylmethyl}-2-[4-(2-hydroxy-butyl)-[1,2,3]triazol-1-yl]-acetamide]
MIC [1]: 4 µg/mL (≈ 7.43 µM)

CC(=O)NC[C@H]1CN(c2ccc(-c3ccc(CNCCc4scnc4C)cc3)c(F)c2)C(=O)O1 [Compound 4096, N-[3-(2-Fluoro-4′-{[2-(4-methyl-thiazol-5-yl)-ethylamino]-methyl}-biphenyl-4-yl)-2-oxo-oxazolidin-5-(S)-ylmethyl]-acetamide]
MIC [1]: 4 µg/mL (≈ 8.29 µM)

CC(=O)NC[C@H]1CN(c2ccc(-c3ccc([C@H](O)CN(CCC(F)(F)Cl)Cc4ccccc4)cc3)c(F)c2)C(=O)O1 [Compound 4249, N-[3-(4′-{2-[Benzyl-(3-chloro-3,3-difluoro-propyl)-amino]-1-(S)-hydroxy-ethyl}-2-fluoro-biphenyl-4-yl)-2-oxo-oxazolidin-5-(S)-ylmethyl]-acetamide]
MIC [1]: 8 µg/mL (≈ 13.6 µM)

CC(=O)NC[C@H]1CN(c2ccc(-c3ccc(CNC(=O)[C@H](N)c4ccc(F)cc4)cc3)c(F)c2)C(=O)O1 [Compound 4297, N-{4′-[5-(S)-(Acetylamino-methyl)-2-oxo-oxazolidin-3-yl]-2′-fluoro-biphenyl-4-ylmethyl}-2-(R)-amino-2-(4-fluoro-phenyl)-acetamide]
MIC [1]: 2 µg/mL (≈ 3.93 µM)

CC(=O)NC[C@H]1CN(c2ccc(-c3ccc(Cn4cncc4C)cc3)c(F)c2)C(=O)O1 [Compound 1067, N-{3-[2-Fluoro-4′-(5-methyl-imidazol-1-ylmethyl)-biphenyl-4-yl]-2-oxo-oxazolidin-5-(S)-ylmethyl}-acetamide]
MIC [1]: 1 µg/mL (≈ 2.37 µM)

CC(=O)NC[C@H]1CN(c2ccc(-c3ccc(CNC(=O)/C=C/c4c(C)[nH]c(=O)[nH]c4=O)cc3)c(F)c2)C(=O)O1 [Compound 4001, N-{4′-[5-(S)-(Acetylamino-methyl)-2-oxo-oxazolidin-3-yl]-2′-fluoro-biphenyl-4-ylmethyl}-3-(6-methyl-2,4-dioxo-1,2,3,4-tetrahydro-pyrimidin-5-yl)-acrylamide]
MIC [1]: 0.25 µg/mL (≈ 0.467 µM)

CC(=O)NC[C@H]1CN(c2ccc(-c3ccc([C@H](O)Cn4ccnc4)cc3)c(F)c2)C(=O)O1 [Compound 1046, N-{3-[2-Fluoro-4′-(1-(S)-hydroxy-2-imidazol-1-yl-ethyl)-biphenyl-4-yl]-2-oxo-oxazolidin-5-(S)-ylmethyl}-acetamide]
MIC [1]: 1 µg/mL (≈ 2.28 µM)

CC(=O)NC[C@H]1CN(c2ccc(-c3ccc([C@H](CO)NCc4ccncc4)cc3)c(F)c2)C(=O)O1 [Compound 4029, N-[3-(2-Fluoro-4′-{2-hydroxy-1-(R)-[(pyridin-4-ylmethyl)-amino]-ethyl}-biphenyl-4-yl)-2-oxo-oxazolidin-5-(S)-ylmethyl]-acetamide]
MIC [1]: 4 µg/mL (≈ 8.36 µM)

CC(=O)NC[C@H]1CN(c2ccc(-c3ccc(Cn4cnc5c(NCC(F)F)ncnc54)cc3)c(F)c2)C(=O)O1 [Compound 1103, N-(3-{4′-[6-(2,2-Difluoro-ethylamino)-purin-9-ylmethyl]-2-fluoro-biphenyl-4-yl}-2-oxo-oxazolidin-5-(S)-ylmethyl)-acetamide]
MIC [1]: 1 µg/mL (≈ 1.85 µM)

CC(=O)NC[C@H]1CN(c2ccc(-c3ccc(Cn4ccnc4)cc3)c(F)c2)C(=O)O1 [Compound 1008, N-[3-(2-Fluoro-4′-imidazol-1-ylmethyl-biphenyl-4-yl)-2-oxo-oxazolidin-5-(S)-ylmethyl]-acetamide]
MIC [1]: 0.5 µg/mL (≈ 1.22 µM)

CC(=O)NC[C@H]1CN(c2ccc(-c3ccc(Cn4cnc5c(NCCCCO)ncnc54)cc3)c(F)c2)C(=O)O1 [Compound 1109, N-(3-{2-Fluoro-4′-[6-(4-hydroxy-butylamino)-purin-9-ylmethyl]-biphenyl-4-yl}-2-oxo-oxazolidin-5-(S)-ylmethyl)-acetamide]
MIC [1]: 2 µg/mL (≈ 3.65 µM)

COc1ccc2[nH]c(C(=O)NCc3ccc(-c4ccc(N5C[C@H](CNC(C)=O)OC5=O)cc4F)cc3)cc2c1 [Compound 4015, 5-Methoxy-1H-indole-2-carboxylic acid {4′-[5-(S)-(acetylamino-methyl)-2-oxo-oxazolidin-3-yl]-2′-fluoro-biphenyl-4-ylmethyl}-amide]
MIC [1]: 4 µg/mL (≈ 7.54 µM)

CC(=O)NC[C@H]1CN(c2ccc(-c3ccc(Cc4csc(NCC5CCCO5)n4)cc3)c(F)c2)C(=O)O1 (stereo partly drawn) [Compound 1020, N-[3-(2-Fluoro-4′-{2-[(tetrahydro-furan-2-ylmethyl)-amino]-thiazol-4-ylmethyl}-biphenyl-4-yl)-2-oxo-oxazolidin-5-(S)-ylmethyl]-acetamide]
MIC: 1 µg/mL (≈ 1.91 µM)

CC(=O)NC[C@H]1CN(c2ccc(-c3ccc(Cc4nc(=O)o[nH]4)cc3)c(F)c2)C(=O)O1 [Compound 1016, N-{3-[2-Fluoro-4′-(5-(S)-oxo-2,5-(S)-dihydro-[1,2,4]oxadiazol-3-ylmethyl)-biphenyl-4-yl]-2-oxo-oxazolidin-5-(S)-ylmethyl}-acetamide]
MIC: 4 µg/mL (≈ 9.38 µM)

COc1nc(C)c(/C=C/C(=O)NCc2ccc(-c3ccc(N4C[C@H](CNC(C)=O)OC4=O)cc3F)cc2)c(O)n1 [Compound 4004, N-{4′-[5-(S)-(Acetylamino-methyl)-2-oxo-oxazolidin-3-yl]-2′-fluoro-biphenyl-4-ylmethyl}-3-(4-hydroxy-2-methoxy-6-methyl-pyrimidin-5-yl)-acrylamide]
MIC [1]: 2 µg/mL (≈ 3.64 µM)

CC(=O)NC[C@H]1CN(c2ccc(-c3ccc(CNCc4nn(-c5ccccc5)nc4C)cc3)c(F)c2)C(=O)O1 [Compound 4146, N-[3-(2-Fluoro-4′-{[(5-methyl-2-phenyl-2H-[1,2,3]triazol-4-ylmethyl)-amino]-methyl}-biphenyl-4-yl)-2-oxo-oxazolidin-5-(S)-ylmethyl]-acetamide]
MIC [1]: 4 µg/mL (≈ 7.57 µM)

CC(=O)NC[C@H]1CN(c2ccc(-c3ccc(CNCc4cccc(C)n4)cc3)c(F)c2)C(=O)O1 [Compound 4072, N-[3-(2-Fluoro-4′-{[(6-methyl-pyridin-2-ylmethyl)-amino]-methyl}-biphenyl-4-yl)-2-oxo-oxazolidin-5-(S)-ylmethyl]-acetamide]
MIC [1]: 2 µg/mL (≈ 4.32 µM)
